Where a name gives a salt, the structure may show the parent alone.
These molecules were tested on HIF1a protein in H9c2 rat cardiomyocytes (assay: Cell-based HIF-alpha stabilization assay (inhibition of PHD in cells)). Details: 24 hrs compound incubation, HIF1a protein by ELISA.
Method: Example B Inhibition of PHD in Cells
PHD Inhibition is Determined Using (Secondary Assay)
Cell-Based HIF-Alpha Stabilization Assay:
H9c2 rat cardiomyocytes (ATCC) were seeded in 96-well tissue culture microplates and cultured for 24 hours prior to addition of compounds (11 point range of serial dilutions) or dimethylsulfoxide vehicle. After 24 hrs of compound incubation, whole cell extracts were prepared by lysing cells in cell extraction buffer containing protease and phosphatase inhibitors (Meso-Scale Discovery). HIF1a protein content was assessed by ELISA (Meso-Scale Discovery) and expressed as a % relative to the maximum response obtained from the positive control, desferrioxamine (Sigma-Aldrich). Compound EC50s were obtained by curve-fitting using XLfit4 MicroSoft Excel curve-fitting software. Compound EC50pos were obtained using XLfit4 to calculate the compound concentration that results in 50% of the desferrioxamine maximum response.

Row | Compound | Inhibition of PHD in cells (pEC50)
1 | COc1cc(-c2cnn(-c3ccc(C(=O)NCCCn4ccnc4)cn3)c2O)ccn1 [Example 21, N-(3-(1H-imidazol-1-yl)propyl)-6-(5-hydroxy-4-(2-methoxypyridin-4-yl)-1H-pyrazol-1-yl)nicotinamide] | 6.46
2 | C[C@@H](NC(=O)c1ccc(-n2ncc(-c3ccc(C#N)cc3)c2O)nc1)C1CC1 [Example 88, (R)-6-(4-(4-cyanophenyl)-5-hydroxy-1H-pyrazol-1-yl)-N-(1-cyclopropylethyl)nicotinamide] | 5.50

Same assay, conditions: Rattus norvegicus, H9c2, 24 h, 24 hrs compound incubation, HIF1a protein by ELISA, read-out: Inhibition of PHD in cells (pEC50) (converted)

Row | Compound | EC50 [nM]
3 | COc1cc(-c2cnn(-c3ccc(C(=O)NCCC4CCOCC4)cn3)c2O)ccn1 [Example 11, 6-(5-hydroxy-4-(2-methoxypyridin-4-yl)-1H-pyrazol-1-yl)-N-(2-(tetrahydro-2H-pyran-4-yl)ethyl)nicotinamide] | 537
4 | COc1cc(-c2cnn(-c3ccc(C(=O)NCCCN4CCCCC4)cn3)c2O)ccn1 [Example 18, 6-(5-hydroxy-4-(2-methoxypyridin-4-yl)-1H-pyrazol-1-yl)-N-(3-(piperidin-1-yl)propyl)nicotinamide] | 933
5 | COc1cc(-c2cnn(-c3ccc(C(=O)NCCCN4CCCC4)cn3)c2O)ccn1 [Example 19, 6-(5-hydroxy-4-(2-methoxypyridin-4-yl)-1H-pyrazol-1-yl)-N-(3-(pyrrolidin-1-yl)propyl)nicotinamide] | 1380
6 | COc1cc(-c2cnn(-c3ccc(C(=O)NCCC4CCCN4C)cn3)c2O)ccn1 (stereo not drawn) [Example 23, 6-(5-hydroxy-4-(2-methoxypyridin-4-yl)-1H-pyrazol-1-yl)-N-(2-(1-methylpyrrolidin-2-yl)ethyl)nicotinamide] | 1000
7 | COc1cc(-c2cnn(-c3ccc(C(=O)NCCCN4CCCCC4C)cn3)c2O)ccn1 (stereo not drawn) [Example 29, 6-(5-hydroxy-4-(2-methoxypyridin-4-yl)-1H-pyrazol-1-yl)-N-(3-(2-methylpiperidin-1-yl)propyl)nicotinamide] | 871
8 | N#Cc1ccc(-c2cnn(-c3ccc(C(=O)NC4CCc5ccc(Cl)cc54)cn3)c2O)cc1 (stereo not drawn) [Example 79, N-(6-chloro-2,3-dihydro-1H-inden-1-yl)-6-(4-(4-cyanophenyl)-5-hydroxy-1H-pyrazol-1-yl)nicotinamide] | 1320
9 | CN1CCC(NC(=O)c2ccc(-n3ncc(-c4ccc(C#N)cc4)c3O)nc2)CC1=O (stereo not drawn) [Example 82, 6-(4-(4-cyanophenyl)-5-hydroxy-1H-pyrazol-1-yl)-N-(1-methyl-2-oxopiperidin-4-yl)nicotinamide] | 4790
10 | COc1ccc2c(c1)C(NC(=O)c1ccc(-n3ncc(-c4ccc(C#N)cc4)c3O)nc1)CC2 (stereo not drawn) [Example 83, 6-(4-(4-cyanophenyl)-5-hydroxy-1H-pyrazol-1-yl)-N-(6-methoxy-2,3-dihydro-1H-inden-1-yl)nicotinamide] | 1780
11 | COCC1(NC(=O)c2ccc(-n3ncc(-c4ccc(C#N)cc4C)c3O)nc2)CC1 [Example 118A, 6-(4-(4-cyano-2-methylphenyl)-5-hydroxy-1H-pyrazol-1-yl)-N-(1-(methoxymethyl)cyclopropyl)nicotinamide] | 79.4
12 | COCCNC(=O)c1cnc(-n2ncc(-c3ccc(C#N)cc3)c2O)cc1C [Example 276, 6-(4-(4-cyanophenyl)-5-hydroxy-1H-pyrazol-1-yl)-N-(2-methoxyethyl)-4-methylnicotinamide] | 3630
13 | CCN1CCC(CN(C)C(=O)c2ccc(-n3ncc(-c4ccc(C#N)cc4)c3O)nc2)C1 (stereo not drawn) [Example 366, 6-(4-(4-cyanophenyl)-5-hydroxy-1H-pyrazol-1-yl)-N-((1-ethylpyrrolidin-3-yl)methyl)-N-methylnicotinamide] | 3800

Each molecule was assayed against PHD2 enzyme (residues 181-417) (Homo sapiens (Human), UniProt Q9GZT9) (assay: Inhibition of PHD enzyme (LC/MS peptide hydroxylation assay)). Details: PHD2 (residues 181-417) 5 nM, 60 min pre-incubation; -log(IC50), IC50 molar.
Chain of PHD2 enzyme (residues 181-417) (Q9GZT9 181-417): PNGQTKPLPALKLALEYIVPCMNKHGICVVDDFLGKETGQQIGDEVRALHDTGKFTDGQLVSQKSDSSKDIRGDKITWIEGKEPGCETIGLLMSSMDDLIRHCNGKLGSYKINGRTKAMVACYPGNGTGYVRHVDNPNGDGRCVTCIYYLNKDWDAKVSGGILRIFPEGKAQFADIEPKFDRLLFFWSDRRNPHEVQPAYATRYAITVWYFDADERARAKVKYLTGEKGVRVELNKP
Assay type: biochemical
Method: Example A Inhibition of PHD Enzyme
The IC50 values for the PHD2 enzyme (residues 181-417) were determined by mixing increasing amounts of inhibitor with a fixed amount of enzyme (5 nM, final concentration) and Biotin labeled peptide (Biotin-Asp-Leu-Glu-Met-Leu-Ala-Pro-Tyr-Ile-Pro-Met-Asp-Asp-Asp-Phe-Gln-Leu, 1 uM final concentration) and 2-Oxyglutarate (2 uM final concentration) in 50 mM HEPES, 50 mM KCl, 0.5 mM TCEP, 2 uM FeCl2, 0.1 mg/ml BSA, at pH 7.3. The reaction was conducted by pre-incubating the enzyme in the presence of inhibitor for 60 min at room temperature. The activity of the free enzyme was measured by adding the peptide, the 2-Oxoglutarate (see above for final concentrations), and Ascorbic Acid (1 mM final concentration). The enzymatic activity was quenched after 60 min by adding an excess of a tight binding inhibitor to the assay mixture. The amount of product released was measured by using a LC/MS system (Agilent HPLC with Applied Biosystems API3000 Mass Spectrometer). Data were analyzed using the classical isotherm equation for the determination of IC50 values and are pIC50, i.e., −log(IC50), where IC50 is molar concentration and are reported as pIC50, i.e., −log(IC50), where IC50 is molar concentration.

Row | Compound | PHD Inhibition (pIC50)
14 | COc1cc(-c2cnn(-c3ccc(C(=O)NC(CO)C4CCOC4)cn3)c2O)ccn1 (stereo not drawn) [Example 27, N-(2-hydroxy-1-(tetrahydrofuran-3-yl)ethyl)-6-(5-hydroxy-4-(2-methoxypyridin-4-yl)-1H-pyrazol-1-yl)nicotinamide] | 6.99
15 | COc1cc(-c2cnn(-c3ccc(C(=O)NCCCCO)cn3)c2O)ccn1 [Example 28, 6-(5-hydroxy-4-(2-methoxypyridin-4-yl)-1H-pyrazol-1-yl)-N-(4-hydroxybutyl)nicotinamide] | 7.01
16 | CCN1CCC(NC(=O)c2ccc(-n3ncc(-c4ccnc(OC)c4)c3O)nc2)CC1 [Example 37, N-(1-ethylpiperidin-4-yl)-6-(5-hydroxy-4-(2-methoxypyridin-4-yl)-1H-pyrazol-1-yl)nicotinamide] | 7.4
17 | COc1cc(-c2cnn(-c3ccc(C(=O)NCCCN(C)C)cn3)c2O)ccn1 [Example 44, N-(3-(dimethylamino)propyl)-6-(5-hydroxy-4-(2-methoxypyridin-4-yl)-1H-pyrazol-1-yl)nicotinamide] | 7.3
18 | N#Cc1ccc(-c2cnn(-c3ccc(C(=O)N[C@H]4CCNC4)cn3)c2O)cc1 [Example 73, (S)-6-(4-(4-cyanophenyl)-5-hydroxy-1H-pyrazol-1-yl)-N-(pyrrolidin-3-yl)nicotinamide] | 7.2
19 | CC1CCCCN1CCCNC(=O)c1ccc(-n2ncc(-c3ccc(C#N)cc3)c2O)nc1 (stereo not drawn) [Example 90, 6-(4-(4-cyanophenyl)-5-hydroxy-1H-pyrazol-1-yl)-N-(3-(2-methylpiperidin-1-yl)propyl)nicotinamide] | 6.95
20 | CN1CCC(CNC(=O)c2ccc(-n3ncc(-c4ccc(C#N)cc4)c3O)nc2)C1 (stereo not drawn) [Example 92, 6-(4-(4-cyanophenyl)-5-hydroxy-1H-pyrazol-1-yl)-N-((1-methylpyrrolidin-3-yl)methyl)nicotinamide] | 6.87
21 | COCCC1(NC(=O)c2ccc(-n3ncc(-c4ccc(C#N)cc4F)c3O)nc2)CC1 [Example 210, 6-(4-(4-cyano-2-fluorophenyl)-5-hydroxy-1H-pyrazol-1-yl)-N-(1-(2-methoxyethyl)cyclopropyl)nicotinamide] | 8.3
22 | CN(C)c1cc(-c2cnn(-c3ccc(C(=O)NCC4CCOCC4)cn3)c2O)ccn1 [Example 212, 6-(4-(2-(dimethylamino)pyridin-4-yl)-5-hydroxy-1H-pyrazol-1-yl)-N-((tetrahydro-2H-pyran-4-yl)methyl)nicotinamide] | 6.21
23 | Cc1cc(-c2cnn(-c3ccc(C(=O)NCC4CCOCC4)cn3)c2O)cc(C)n1 [Example 224, 6-(4-(2,6-dimethylpyridin-4-yl)-5-hydroxy-1H-pyrazol-1-yl)-N-((tetrahydro-2H-pyran-4-yl)methyl)nicotinamide] | 5.83
24 | O=C(NCC1CCOCC1)c1ccc(-n2ncc(-c3ccncc3)c2O)nc1 [Example 226, 6-(5-hydroxy-4-(pyridin-4-yl)-1H-pyrazol-1-yl)-N-((tetrahydro-2H-pyran-4-yl)methyl)nicotinamide] | 6.6
25 | COCCCN(C)C(=O)c1ccc(-n2ncc(-c3ccc(C#N)cc3OC)c2O)nc1 [Example 240, 6-(4-(4-cyano-2-methoxyphenyl)-5-hydroxy-1H-pyrazol-1-yl)-N-(3-methoxypropyl)-N-methylnicotinamide] | 6.63
26 | N#Cc1ccc(-c2cnn(-c3ccc(C(=O)NCC4CCC4)cn3)c2O)cc1 [Example 256, 6-(4-(4-cyanophenyl)-5-hydroxy-1H-pyrazol-1-yl)-N-(cyclobutylmethyl)nicotinamide] | 6.72
27 | CC1CC(CNC(=O)c2ccc(-n3ncc(-c4ccc(C#N)cc4)c3O)nc2)C1 (stereo not drawn) [Example 257, 6-(4-(4-cyanophenyl)-5-hydroxy-1H-pyrazol-1-yl)-N-((3-methylcyclobutyl)methyl)nicotinamide] | 7.24
28 | CNCCCNC(=O)c1ccc(-n2ncc(-c3ccc(C#N)cc3)c2O)nc1 [Example 272, 6-(4-(4-cyanophenyl)-5-hydroxy-1H-pyrazol-1-yl)-N-(3-(methylamino)propyl)nicotinamide hydrochloride] | 7.03
29 | Cc1cc(C#N)ccc1-c1cnn(-c2ccc(C(=O)N3CCN4CCCC4C3)cn2)c1O (stereo not drawn) [Example 407, 4-(5-hydroxy-1-(5-(octahydropyrrolo[1,2-a]pyrazine-2-carbonyl)pyridin-2-yl)-1H-pyrazol-4-yl)-3-methylbenzonitrile] | 8.23
30 | CCCN1CCCN(C(=O)c2ccc(-n3ncc(-c4ccc(C#N)cc4C)c3O)nc2)CC1 [Example 424, 4-(5-hydroxy-1-(5-(4-propyl-1,4-diazepane-1-carbonyl)pyridin-2-yl)-1H-pyrazol-4-yl)-3-methylbenzonitrile] | 7.70

Reference: US10407409B2, “6-(5-hydroxy-1H-pyrazol-1-yl)nicotinamide inhibitors of PHD” (Takeda Pharmaceutical Company Limited, priority 2013, dated 2019)
